In PubChem BioAssay (NCI):
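1) Cells in 96-well plates. 2) Compound, 48 h, 5 concentrations. 3) Linear interpolation between surrounding doses. 4) Unreached endpoint = highest concentration. GI50 is the concentration that inhibits growth by half. TGI marks complete inhibition of growth.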

Assays:
Experiment in all cases: NCI-60 cell line screen, 48 h
COLO 205 colon = test system: COLO 205 colon
LOX IMVI melanoma = test system: LOX IMVI melanoma
NCI-H522 lung = test system: NCI-H522 lung
OVCAR-4 ovarian = test system: OVCAR-4 ovarian
SF-295 CNS = test system: SF-295 CNS
SF-539 CNS = test system: SF-539 CNS
SW-620 colon = test system: SW-620 colon
MCF7 breast = test system: MCF7 breast
PC-3 prostate = test system: PC-3 prostate
DU-145 prostate = test system: DU-145 prostate

Structure (SMILES)	TGI (COLO 205 colon)	TGI (LOX IMVI melanoma)	TGI (NCI-H522 lung)	TGI (OVCAR-4 ovarian)	TGI (SF-295 CNS)	TGI (SF-539 CNS)	TGI (SW-620 colon)	GI50 (COLO 205 colon)	GI50 (LOX IMVI melanoma)	GI50 (MCF7 breast)	TGI (MCF7 breast)	GI50 (NCI-H522 lung)	GI50 (PC-3 prostate)	TGI (PC-3 prostate)	GI50 (SF-295 CNS)	GI50 (SW-620 colon)	GI50 (DU-145 prostate)	TGI (DU-145 prostate)	GI50 (SF-539 CNS)	GI50 (OVCAR-4 ovarian)
COc1c(NC(C)=O)cc(C)cc1NC(C)=O	> 100 µM	> 100 µM	> 100 µM	> 100 µM	> 100 µM	> 100 µM	> 100 µM	–	–	–	–	–	–	–	–	–	–	–	–	–
Oc1ccc(O)c(-c2cc(-c3ccccc3)nn2-c2ccccc2)c1	> 100 µM	25 µM	> 100 µM	–	> 100 µM	–	> 100 µM	24.9 µM	10.2 µM	6.55 µM	> 100 µM	31 µM	16.7 µM	> 100 µM	28.5 µM	26 µM	–	–	–	–
COC(=O)C1=C(C(=O)OC)C23CC1C1C(C(=O)OC)=C(C(=O)OC)C12C1C=CC3C2C(=O)OC(=O)C21 (centres undefined)	64.9 µM	–	63.5 µM	> 100 µM	> 100 µM	> 100 µM	> 100 µM	–	–	–	–	–	–	–	–	–	–	–	–	–
NNC(=S)N/N=C(/C(=O)Nc1cc(Cl)ccc1Cl)C1C(=O)Nc2ccccc2S1=O (centres undefined)	> 100 µM	> 100 µM	> 100 µM	> 100 µM	> 100 µM	> 100 µM	> 100 µM	–	–	–	–	–	–	–	–	–	–	–	–	–
COc1ccc(C(=O)C(C(=O)C(=O)Nc2ccc(Cl)c(Cl)c2)c2ccc(OC)cc2)cc1 (centres undefined)	–	> 100 µM	–	> 100 µM	> 100 µM	> 100 µM	> 100 µM	–	–	–	–	–	–	–	–	–	–	–	–	–
CC(C)(C)CC(C)(C)c1cc2c(O)c(c1)Cc1cc(C(C)(C)CC(C)(C)C)cc(c1O)Cc1cc(C(C)(C)CC(C)(C)C)cc(c1O)Cc1cc(C(C)(C)CC(C)(C)C)cc(c1O)Cc1cc(C(C)(C)CC(C)(C)C)cc(c1O)Cc1cc(C(C)(C)CC(C)(C)C)cc(c1O)C2	> 100 µM	–	> 100 µM	> 100 µM	> 100 µM	> 100 µM	> 100 µM	–	–	–	–	–	–	–	–	–	–	–	–	–
COc1cnc2c(c1)C(=O)c1c-2n(CCCN2CCC(O)CC2)c(=O)c2cc(F)ccc12	–	0.295 µM	0.479 µM	–	–	1.14 µM	2.1 µM	–	0.127 µM	0.0312 µM	1.17 µM	0.0584 µM	–	–	–	0.107 µM	0.174 µM	1.41 µM	0.295 µM	–
CCOC(=O)C1=C(O)CSC1=Nc1ccccc1	> 100 µM	> 100 µM	> 100 µM	> 100 µM	> 100 µM	> 100 µM	> 100 µM	–	–	–	–	–	–	–	–	–	–	–	–	–
CN[C@@H](C)[C@@H](N)c1ccccc1	> 100 µM	> 100 µM	> 100 µM	–	> 100 µM	> 100 µM	> 100 µM	–	–	–	–	–	–	–	–	–	–	–	–	–
CC(=O)c1cccc(NC(=O)C(=O)C(C2OC(=O)c3ccccc32)[N+](=O)[O-])c1 (centres undefined)	> 100 µM	> 100 µM	–	> 100 µM	> 100 µM	> 100 µM	> 100 µM	–	–	–	–	–	–	–	–	–	–	–	–	–
CCOC(=O)c1cc2c(nc1N)-c1ncccc1CC2	69.2 µM	> 100 µM	> 100 µM	> 100 µM	> 100 µM	> 100 µM	> 100 µM	–	–	–	–	–	–	–	–	–	–	–	–	–
COc1ccc(N=Nc2c(-c3ccccc3)nn(C(=O)CC(=O)Nc3cccc(Cl)c3)c2-c2ccccc2)cc1	> 100 µM	> 100 µM	> 100 µM	> 100 µM	> 100 µM	> 100 µM	> 100 µM	–	–	–	–	–	–	–	–	–	–	–	–	–
CCOC(=O)C1=C(C)NC2SC(=O)/C(=C\c3ccccc3O)N2C1c1ccccc1 (centres undefined)	72.8 µM	34 µM	76.3 µM	–	> 100 µM	> 100 µM	> 100 µM	23.2 µM	18.4 µM	86 µM	> 100 µM	26.2 µM	26.5 µM	74.1 µM	27.2 µM	38.5 µM	30.5 µM	> 100 µM	35.5 µM	–
COc1cccc2c1-c1c(c3ccc([N+](=O)[O-])cc3c(=O)n1CCCCl)C2=O	> 50 µM	> 50 µM	> 50 µM	–	> 50 µM	–	> 50 µM	> 50 µM	1.23 µM	0.0614 µM	0.327 µM	0.685 µM	7.37 µM	> 50 µM	1.82 µM	0.286 µM	–	–	–	–
Cc1c(C(=O)C/C(=N/NC(=O)C[n+]2ccccc2)C(=O)Nc2ccccc2)[n+](=O)c2ccccc2n1O	> 100 µM	> 100 µM	> 100 µM	> 100 µM	> 100 µM	> 100 µM	> 100 µM	–	–	–	–	–	–	–	–	–	–	–	–	–
CC(=O)C1=C(C)Cn2c(=O)c3ccccc3c(=O)n2C1	> 100 µM	> 100 µM	> 100 µM	> 100 µM	> 100 µM	> 100 µM	> 100 µM	–	–	–	–	–	–	–	–	–	–	–	–	–
Cn1c(O)c(C(/C=C/c2ccccc2)=NCCN=C(/C=C/c2ccccc2)c2c(O)n(C)c(=O)n(C)c2=O)c(=O)n(C)c1=O	> 50 µM	> 50 µM	> 50 µM	> 50 µM	> 50 µM	33.3 µM	34.2 µM	17.3 µM	17.1 µM	15.9 µM	> 50 µM	16.8 µM	–	–	16.2 µM	15.5 µM	13.3 µM	> 50 µM	13.7 µM	13.9 µM
